PubChem BioAssay AID504628 (Vanderbilt High Throughput Screening Facility, 2011)

Target: Voltage-dependent T-type calcium channel subunit alpha-1H (Homo sapiens) (UniProt O95180)
Assay: Cav3.2 current block by patch clamp, late-stage follow-up, orthogonal assay for T-type calcium channel inhibitor project, HEK293 cells, whole-cell recording (AID 504628)
Conditions: HEK293-Cav3.2 whole-cell patch clamp, Ba2+ current; at 1 µM

Voltage-dependent T-type calcium channel subunit alpha-1H (Homo sapiens), sequence (O95180 whole entry, looked up): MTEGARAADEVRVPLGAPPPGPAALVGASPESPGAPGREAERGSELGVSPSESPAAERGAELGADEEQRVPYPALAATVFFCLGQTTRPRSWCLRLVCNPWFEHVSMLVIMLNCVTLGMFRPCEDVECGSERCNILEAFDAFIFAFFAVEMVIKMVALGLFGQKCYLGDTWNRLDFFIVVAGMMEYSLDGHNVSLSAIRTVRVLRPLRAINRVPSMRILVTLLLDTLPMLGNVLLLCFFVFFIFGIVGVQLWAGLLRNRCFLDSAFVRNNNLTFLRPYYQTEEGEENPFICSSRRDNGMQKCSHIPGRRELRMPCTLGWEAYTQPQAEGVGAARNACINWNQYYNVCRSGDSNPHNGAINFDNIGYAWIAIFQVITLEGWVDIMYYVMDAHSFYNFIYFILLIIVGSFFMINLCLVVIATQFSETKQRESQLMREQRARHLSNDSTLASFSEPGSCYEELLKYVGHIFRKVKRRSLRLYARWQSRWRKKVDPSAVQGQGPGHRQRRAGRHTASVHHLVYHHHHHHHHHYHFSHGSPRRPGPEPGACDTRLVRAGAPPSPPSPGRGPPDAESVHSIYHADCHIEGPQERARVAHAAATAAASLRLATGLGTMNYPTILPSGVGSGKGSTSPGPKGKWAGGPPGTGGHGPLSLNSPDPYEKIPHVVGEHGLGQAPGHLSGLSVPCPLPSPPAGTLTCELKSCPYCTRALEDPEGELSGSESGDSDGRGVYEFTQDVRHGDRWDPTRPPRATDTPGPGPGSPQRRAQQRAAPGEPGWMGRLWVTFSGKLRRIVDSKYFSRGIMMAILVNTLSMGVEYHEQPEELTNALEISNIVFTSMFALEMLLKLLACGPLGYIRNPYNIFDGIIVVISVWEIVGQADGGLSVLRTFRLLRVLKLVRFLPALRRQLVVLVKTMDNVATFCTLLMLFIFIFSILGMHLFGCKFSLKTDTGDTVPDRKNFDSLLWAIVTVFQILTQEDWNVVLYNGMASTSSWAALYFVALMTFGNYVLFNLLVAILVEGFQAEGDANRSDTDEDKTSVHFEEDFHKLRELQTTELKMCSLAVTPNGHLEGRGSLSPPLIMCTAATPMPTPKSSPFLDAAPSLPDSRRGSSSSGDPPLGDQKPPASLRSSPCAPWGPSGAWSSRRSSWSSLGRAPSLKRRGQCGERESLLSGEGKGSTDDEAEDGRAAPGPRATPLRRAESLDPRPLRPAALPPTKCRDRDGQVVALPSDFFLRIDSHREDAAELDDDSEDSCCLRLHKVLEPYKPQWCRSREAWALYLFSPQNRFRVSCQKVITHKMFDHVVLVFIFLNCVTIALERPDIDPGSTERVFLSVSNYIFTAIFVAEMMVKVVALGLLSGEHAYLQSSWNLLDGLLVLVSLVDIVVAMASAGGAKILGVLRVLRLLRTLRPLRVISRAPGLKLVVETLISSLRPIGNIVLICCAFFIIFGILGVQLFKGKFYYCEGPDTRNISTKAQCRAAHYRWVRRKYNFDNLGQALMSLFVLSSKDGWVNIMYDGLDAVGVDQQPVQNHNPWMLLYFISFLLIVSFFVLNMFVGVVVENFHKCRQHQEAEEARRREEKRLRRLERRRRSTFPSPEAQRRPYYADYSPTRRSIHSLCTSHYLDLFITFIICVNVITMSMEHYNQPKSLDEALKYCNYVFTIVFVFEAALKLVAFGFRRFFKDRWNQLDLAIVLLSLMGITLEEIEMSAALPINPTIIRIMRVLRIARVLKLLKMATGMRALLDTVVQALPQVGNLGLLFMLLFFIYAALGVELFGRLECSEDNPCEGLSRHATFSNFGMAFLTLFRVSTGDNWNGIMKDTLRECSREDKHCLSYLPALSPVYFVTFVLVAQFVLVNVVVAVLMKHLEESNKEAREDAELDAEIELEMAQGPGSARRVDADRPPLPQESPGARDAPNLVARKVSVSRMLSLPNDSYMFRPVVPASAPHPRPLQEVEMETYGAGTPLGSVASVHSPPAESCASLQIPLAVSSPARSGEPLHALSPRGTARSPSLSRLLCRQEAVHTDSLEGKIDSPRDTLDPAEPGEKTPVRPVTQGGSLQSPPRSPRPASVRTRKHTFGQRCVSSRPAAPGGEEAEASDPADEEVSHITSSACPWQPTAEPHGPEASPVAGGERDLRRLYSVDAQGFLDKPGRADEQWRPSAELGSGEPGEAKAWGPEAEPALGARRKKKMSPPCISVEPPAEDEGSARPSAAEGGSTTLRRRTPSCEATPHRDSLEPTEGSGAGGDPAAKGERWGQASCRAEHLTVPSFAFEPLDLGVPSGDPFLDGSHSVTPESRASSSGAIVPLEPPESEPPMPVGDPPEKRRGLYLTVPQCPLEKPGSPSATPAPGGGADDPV

CC(C)(C)CCN1C[C@@H]2C(CNC(=O)c3cc(Cl)cc(Cl)c3)[C@@H]2C1 (stereo partly specified)
current: -1010 pA
